The values below come from paper PMC10818931, “In Vitro Evaluation of Drug–Drug Interaction Potential of Epetraborole, a Novel Bacterial Leucyl-tRNA Synthetase Inhibitor” (Pharmaceuticals, 2024).

pIC50: −log10 of the molar value. Some results are limits rather than exact numbers.

Series [1] deals with P-gp (Homo sapiens, UniProt P08183). Briefly: Inhibition of P-gp digoxin efflux transport in MDR1-MDCK cells. Here is the method: A preincubation with EBO or known inhibitor was performed on both sides to preload the cells. After 30 min, the preincubation solution was aspirated. Aliquots of fresh dosing solution with or without EBO or known inhibitor (0.55 mL for AP-to-BL, 1.55 mL for BL-to-AP) were added to the donor compartment, and HBSSg_7.4 with or without EBO or known inhibitor (1.5 mL for AP-to-BL, 0.5 mL for BL-to-AP) were added to the receiver compartment. Receiver samples (200 µL) and donor samples (50 µL) were taken at preselected time points.
Cell monolayer integrity was examined using lucifer yellow (excitation 450 nm and emission 538 nm). The concentrations of the probe substrate in the donor and receiver samples, as well as EBO in dosing solutions, were determined by LC-MS/MS.

Series [2] has as its system CYP2B6. Briefly: CYP inhibition (direct and metabolism-dependent) in human hepatic microsomes. In kind it is in vitro ADME. Here is the method: (§1) The direct inhibitory potential of EBO on cytochrome P450 activities O-deethylase (CYP1A2), bupropion hydroxylase (CYP2B6), amodiaquine N-deethylase (CYP2C8), diclofenac 4′-hydroxylase (CYP2C9), S-mephenytoin 4′-hydroxylase (CYP2C19), bufuralol 1′-hydroxylase (CYP2D6), chlorzoxazone 6-hydroxylase (CYP2E1), testosterone 6β-hydroxylase (CYP3A), and midazolam 1′-hydroxylase (CYP3A) was assessed in vitro using human hepatic microsomes according to Covance Laboratory (Madison, WI, USA) SOP. A single substrate concentration was used, approximating the concentration of substrate that gives half the maximum reaction velocity (Km) for human hepatic microsomes for each cytochrome P450 activity. […] All sample and control incubations were performed in triplicate and were analyzed by LC-MS/MS. Incubation mixtures contained microsomal protein and substrate in a 0.1 M potassium phosphate buffer (pH 7.4) containing 1 mM EDTA (assay buffer). […] Incubations were terminated by the addition of 100 µL of an internal standard solution followed by vortex mixing. Protein was removed by centrifugation at 1500× g for 5 min at 4 °C, and supernatants were transferred to a separate plate and stored at 4 °C prior to LC-MS/MS analysis. The analyte for each activity assay was quantitated by comparison to a linear curve of an authentic standard prepared using human microsomal protein. […] Incubations were performed at substrate concentrations approximating the average Km values. […] For determination of control activities, NADPH was added after the addition of each substrate. Samples were then processed as previously described.

The target in series [3] is T1, CYP2C19 (Homo sapiens, UniProt P33261).
T1 construct: tissue CellzDirect; XenoTech LLC; host or cells: pooled human liver microsomes
The series is described as above. In kind it is in vitro ADME. Here is the method:
as §1

In series [4] the target is T2, CYP2E1 (Homo sapiens, UniProt P05181).
T2 construct: Characterized, pooled, human hepatic microsomes from 15 individuals; tissue CellzDirect (Durham, NC, USA) or XenoTech LLC (Lenexa, KS, USA); host or cells: pooled human liver microsomes (15 donors)
Described as above. In kind it is in vitro ADME. Here is the method:
as §1

Where [5] appears, read: metabolism-dependent inhibition.

Chain of P-gp (P08183 whole entry): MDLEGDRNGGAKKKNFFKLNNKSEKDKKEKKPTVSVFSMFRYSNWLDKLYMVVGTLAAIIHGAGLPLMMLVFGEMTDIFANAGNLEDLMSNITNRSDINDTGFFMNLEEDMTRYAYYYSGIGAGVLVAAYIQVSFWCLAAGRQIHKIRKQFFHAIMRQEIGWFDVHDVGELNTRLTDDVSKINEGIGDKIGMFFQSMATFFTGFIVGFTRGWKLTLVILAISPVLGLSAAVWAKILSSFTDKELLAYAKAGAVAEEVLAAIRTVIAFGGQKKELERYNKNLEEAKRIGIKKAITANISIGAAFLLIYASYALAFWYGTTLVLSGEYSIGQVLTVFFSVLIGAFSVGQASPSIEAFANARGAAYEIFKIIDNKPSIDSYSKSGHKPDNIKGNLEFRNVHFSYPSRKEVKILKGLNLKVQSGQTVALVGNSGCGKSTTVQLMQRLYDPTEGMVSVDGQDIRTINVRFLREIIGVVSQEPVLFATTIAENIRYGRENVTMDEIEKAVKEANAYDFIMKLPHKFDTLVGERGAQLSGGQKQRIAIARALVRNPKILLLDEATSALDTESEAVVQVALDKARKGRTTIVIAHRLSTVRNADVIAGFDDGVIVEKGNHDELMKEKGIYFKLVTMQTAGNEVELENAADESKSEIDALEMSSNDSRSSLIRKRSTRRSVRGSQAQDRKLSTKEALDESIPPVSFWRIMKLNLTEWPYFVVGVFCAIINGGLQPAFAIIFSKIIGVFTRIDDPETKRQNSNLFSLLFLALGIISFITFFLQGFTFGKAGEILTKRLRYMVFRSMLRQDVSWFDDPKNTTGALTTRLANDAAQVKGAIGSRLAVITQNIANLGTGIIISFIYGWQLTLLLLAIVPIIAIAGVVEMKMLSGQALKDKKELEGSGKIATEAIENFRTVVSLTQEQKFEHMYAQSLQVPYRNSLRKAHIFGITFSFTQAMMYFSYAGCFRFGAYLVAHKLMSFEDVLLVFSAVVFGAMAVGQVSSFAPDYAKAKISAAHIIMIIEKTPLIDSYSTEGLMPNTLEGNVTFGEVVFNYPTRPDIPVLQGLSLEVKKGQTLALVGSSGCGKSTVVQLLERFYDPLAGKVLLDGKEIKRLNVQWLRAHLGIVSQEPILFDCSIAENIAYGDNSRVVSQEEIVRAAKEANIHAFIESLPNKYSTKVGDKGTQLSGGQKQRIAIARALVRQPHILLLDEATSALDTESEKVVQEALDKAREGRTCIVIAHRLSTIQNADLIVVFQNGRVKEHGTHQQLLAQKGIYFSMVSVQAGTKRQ
T2 sequence (P05181 whole entry): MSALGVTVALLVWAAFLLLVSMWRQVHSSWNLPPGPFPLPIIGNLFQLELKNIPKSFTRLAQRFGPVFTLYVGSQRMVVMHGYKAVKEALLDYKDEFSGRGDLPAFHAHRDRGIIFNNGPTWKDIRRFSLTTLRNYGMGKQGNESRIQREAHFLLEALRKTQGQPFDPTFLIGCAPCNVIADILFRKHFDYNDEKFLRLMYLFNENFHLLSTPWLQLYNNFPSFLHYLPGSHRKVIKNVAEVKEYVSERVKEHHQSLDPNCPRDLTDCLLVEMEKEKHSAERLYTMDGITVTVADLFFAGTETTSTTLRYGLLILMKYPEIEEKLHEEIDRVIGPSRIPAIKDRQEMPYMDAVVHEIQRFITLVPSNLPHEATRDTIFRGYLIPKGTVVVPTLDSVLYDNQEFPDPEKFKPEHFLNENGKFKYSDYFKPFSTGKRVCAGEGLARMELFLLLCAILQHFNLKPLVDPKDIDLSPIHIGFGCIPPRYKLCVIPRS
T1 sequence (P33261 whole entry): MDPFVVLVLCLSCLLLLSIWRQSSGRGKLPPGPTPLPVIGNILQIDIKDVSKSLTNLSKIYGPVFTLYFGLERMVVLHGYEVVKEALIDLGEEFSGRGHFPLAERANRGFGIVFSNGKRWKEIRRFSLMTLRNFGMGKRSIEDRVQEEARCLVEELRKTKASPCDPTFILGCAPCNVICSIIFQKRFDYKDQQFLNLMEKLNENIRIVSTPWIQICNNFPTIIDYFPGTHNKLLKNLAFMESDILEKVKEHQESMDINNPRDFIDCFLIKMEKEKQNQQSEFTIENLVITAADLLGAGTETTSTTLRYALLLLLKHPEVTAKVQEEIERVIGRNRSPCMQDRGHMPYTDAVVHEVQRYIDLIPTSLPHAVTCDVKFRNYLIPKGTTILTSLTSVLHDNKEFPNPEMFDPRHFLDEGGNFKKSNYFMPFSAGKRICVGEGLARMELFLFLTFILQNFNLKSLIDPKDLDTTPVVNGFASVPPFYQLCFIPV

Regarding `NC[C@H]1OB(O)c2c(OCCCO)cccc21` [EBO, Epetraborole], the pIC50 in series [1] was 2.25; in series [2] (human, human liver microsomes, pH 7.4, probe bupropion, read-out: as an Inhibitor IC50), less than 4.00; in series [3] (read-out: as an Inhibitor IC50), less than 4.00; in series [4] (read-out: as an Inhibitor IC50) it was less than 4.00. For the same compound, in series [1] (human, pH 7.4), the “[Igut]/IC50” value is listed as no more than 3. Also, the inhibition at 17000 µM in series [1] (human, pH 7.4) was greater than 50%. The “MDI IC50 Fold Change” value in series [2] (setting [5]), in series [3] (setting [5]) and in series [4] (setting [5]) was “No” in each case.

As a reminder, the pIC50 is the negative decadic logarithm of the IC50, by convention in mol/L. As a reminder, the inhibition is the relative decrease from the control value, in per cent.
